This is an account of results in patent US20110071124A1, “Compounds that Inhibit Production of sAPPB and AB and Uses Thereof” (The Trustees of Columbia University in the City of New York, priority 2008, published 2011).

In data set [1] the test system is sAPPβ (BACE1 cleavage of SEAP-APPwt) in SY5Y-BACEGFP-SEAPAPPwt cells. In words: cell-based BACE1 assay (sAPPβ modified ELISA). Particulars: for IC50: 12 concentrations 0.1 nM to 30 μM, 96-well format (FIG. 8), read-out: cell-based IC50 (sAPPβ), 12-point dose-response. As to the method:
FIG. 1. An sAPPβ assay utilized to identify inhibitors of BACE1. The assay utilizes SY5Y cells stably overexpressing BACE-GFP and SEAP-APPwt. Cells are incubated with a candidate compound for 6 hours prior to harvesting media. BACE1-mediated cleavage of APP results in the release of sAPPβ into the media. α-secretase, a competing enzyme that is non-amyloidogenic, also cleaves APP to release […]. Using an sAPPβ-specific antibody (sβwt), SEAP-sAPPβ is specifically captured in a modified ELISA assay. Detection is achieved by addition of the fluorescent alkaline phosphatase substrate, 4-methylumbelliferyl phosphate (4-MUP).
(§1) FIG. 13. […] Compounds were tested in SY5Y-BACEGFP-SEAPAPPwt cells using the cell-based BACE1 assay. Select compounds were also investigated for Aβ-lowering effect using a commercial Aβ ELISA kit (BioSource). All compounds were tested at 8 concentrations (30, 10, 3, 1, 0.3, 0.1, 0.03, and 0.01 μM), and data points were analyzed with Origin software and fitted using a logistic model for IC50 determination.
As described in the Examples below, and depicted in FIG. 1, an sAPPβ ELISA assay may comprise cells, for example, SY5Y cells, transfected with a BACE1 reporter construct, such as a GFP-tagged BACE1 (BACE-GFP), and a wild type APP reporter construct, such as a secreted alkaline phosphatase (SEAP)-tagged wild type APP (SEAP-APPwt). BACE1 cleavage of the reporter-tagged APP (e.g. SEAP-APPwt) may result in secretion into the media of SEAP-tagged sAPPβ, which may be collected and specifically captured using an sAPPβ cleavage site-specific antibody (e.g. stβwt). Following washing, a substrate may be used, for example, the fluorescent alkaline phosphatase substrate 4-methylumbelliferyl phosphate (4-MUP), to detect the captured SEAP-sAPPβ.
A cell-based modified ELISA assay for measuring sAPPβ, the secreted ectodomain of β-amyloid precursor protein (APP) following β-secretase (BACE1) cleavage, was used to identify a class of compounds that interfered with the first step of sAPPβ generation. This assay has been described in International Application PCT/US2007/015938 (Published as International Publication No. WO 08/008463), which is herein incorporated in its entirety for all purposes.
The SY5Y-BACEGFP-SEAPAPPwt cell based assay was developed to discover novel small molecule modulators of BACE1 activity. SY5Y cells were stably transfected with GFP-tagged BACE1 (BACE-GFP) and secreted alkaline phosphatase (SEAP)-tagged wildtype APP (SEAP-APPwt). BACE1 cleavage of SEAP-APPwt results in secretion into the media of SEAP-tagged sAPPβ, which is collected and specifically captured using an sAPP0 cleavage site-specific antibody (sβwt). After washing, the fluorescent alkaline phosphatase substrate 4-methylumbelliferyl phosphate (4-MUP) is used to detect the captured SEAP-sAPPβ (FIG. 1).
The 15 LDDN compounds selected based on their 3-point dose-response profile were tested at 12 concentrations (ranging from 0.1 nM to 30 μM) in the cell-based BACE1 assay. The assay was conducted in 96-well format to maximize the Z′ factor. Compounds were characterized in duplicate cell plates, each containing 12 doses of compound in triplicate. Cell viability was measured at 6 and 24 hours using Promega's Cell Titer-Glo kit according to the manufacturer's protocol. The dose-response curves for sAPPβ reduction were plotted using Origin software and fitted using a logistic model for IC50 determination.
(§2) 27 structural analogs of LDN-0057228 were synthesized and tested using the cell-based BACE1 assay in SY5Y-BACEGFP-SEAPAPPwt cells (FIG. 13). 4 analogs, in addition to the parent compound, were also assessed for Aβ40 lowering activity using a commercial Aβ kit (BioSource). Because LDN-0057228 resembles CNS monoamine transporter inhibitors, this analog series was given the designation “CNS.” LDN-0057228 gave an unexpectedly low potency (IC50˜20 μM for both sAPPβ and Aβ40 reduction) compared to the ˜7 μM potency obtained using the same compound in FIG. 8.
A general note: In an ELISA, binding on a coated surface is turned into a signal by an enzyme label.

For data set [2], the system named is SY5Y-BACEGFP-SEAPAPPwt cells. The conditions noted are these: tagged-triazine hits, 10 μM.
Description: Of the 147 hits selected during the primary screen, 139 were retested in a 3-point dose-response (10, 2, 0.2 μM) confirmatory screen. BACE1 assay was performed as described, and cell viability was determined by Cell Titer AQeous One cell proliferation assay (Promega). Representative data from four compounds are shown. Data points represent mean±s.d. of four determinations.
The primary screen for the nearly 3,000-compound tagged-triazine library was conducted in 96-well format by hand. Compounds were supplied in powder form in 96-well polypropylene plates. The compounds were first dissolved in DMSO to generate 10 mM stock plates, then stamped onto new polypropylene plates to make 1 mM working stock solution. For assay, 1 mM working stock solution was diluted 1:100 into cell culture media for a final concentration of 10 μM. […] Negative (DMSO) and positive (BACE inhibitor IV at 10 μM) controls were included on every screening plate in triplicate for quality control and calculation of Z′ factors.
The 144 hits from the primary screen were rescreened in triplicate at 10 μM to confirm the activity and to assess cytotoxicity.
Of the 147 hits from the primary screen, 139 were retested for 3-point dose-response at 10, 2, and 0.2 μM concentrations in quadruplicate. […] The compounds were simultaneously evaluated for cytotoxicity using the Cell Titer AQueous One cell proliferation assay (Promega). […]
Data set [3] has as its system Aβ40 in SY5Y-BACEGFP-SEAPAPPwt cells. Description: Aβ40 ELISA (BioSource) in SY5Y-BACEGFP-SEAPAPPwt cells. The class given is cell-based. Particulars: 4 concentrations (30, 10, 3, 0.3 μM), 6 hours. As to the method:
FIG. 11. 5 LDDN compounds reduce Aβ40 in SYSY-BACEGFP-SEAPAPPwt cells. sAPPβ and 24-hour cell viability was performed as described in Chapter 4.1. Aβ40 ELISA was performed using the Aβ40 ELISA kit (BioSource) according to the manufacturer's protocol. Cell culture media was collected after 6 hours of treatment with 4 concentrations (30, 10, 3, 0.3 μM) of compound and diluted 3:10 prior to loading onto the Aβ ELISA plate. The data points for sAPPβ and Aβ were roughly superimposed. Data points represent mean±s.d. of 3 determinations.
as §1
In other non-limiting embodiments, the effective amount of at least one compound of Formulas I-VII, and/or a compound depicted in FIG. 19, may be correlated with the compound's ability to reduce the level of Aβ40 in an in vitro assay that measures the level of Aβ40 produced in a cell line, for example, an SY5Y-BACEGFP-SEAPAPPwt cell line. In one non-limiting example, the level of Aβ40 expressed by the cell line may be measured through the use of an Aβ40 Elisa kit (Bio Source). In one embodiment, the assay comprises incubating the Aβ40 expressing cells with a compound of Formulas I-VII, and/or a compound depicted in FIG. 19, followed by assaying the concentration of Aβ40 in the cell media. In such an assay, a greater reduction of Aβ40 concentration in the cell media following incubation with a compound compared to a control cell line not contacted with the compound is correlative with the compound's therapeutic efficacy.
The 15 LDDN compounds were tested in SY5Y-BACEGFP-SEAPAPPwt cells for their ability to reduce Aβ40 using a commercial Aβ40 ELISA kit (BioSource). SY5Y-BACEGFP-SEAPAPPwt cells were grown to 100% confluence and incubated with 4 concentrations of each compound (30, 10, 3, 0.3 μM). Cell culture media was collected after 6 hours of compound incubation and diluted 3:10 in sample diluent supplied in the Aβ40 ELISA kit. Aβ ELISA was performed according to the manufacturer's protocol. […] LDN-0057228 and LDN-0069630 are small molecules with ample chemical space for modification, and are thus considered good candidates for medicinal chemistry.
as §2

Data set [4] concerns Aβ40 in Lenti-APPsw infected primary cortical neurons. Description: Aβ40 ELISA in Lenti-APPsw infected primary cortical neurons. The class given is cell-based, mouse. Particulars: 24 hours. As to the method:
FIG. 15A-D. LDN-0057228 reduces Aβ40 and sAPPβ in primary neurons. DIV-14 primary cortical neurons from wild-type mice were incubated for 24 hours with primary culture media containing lentivirus harboring APPsw. After infection, neurons were incubated for 48 hours with 1:1 fresh to conditioned media to allow for APP expression. Neurons were then treated with LDN-0057228 at 20 μM for 24 hours in triplicate. A) Media was collected for Aβ40 ELISA. Raw Aβ40 values were normalized to APP to control for variations in lentiviral infection efficiency. B) Cell lysates were probed with 6E10 antibody to visualize the transduced full-length APP. C) sAPPβ from neuron culture media was immunoprecipitated with sβsw antibody and probed with LN27. D) Quantification of sAPPβ, normalized to APP. Data in A) and […]) represent mean+s.d. of 3 wells. Bands from B) and C) were quantified using ImageJ software.
FIG. 16A-B. CNS-2 and LDN-0057228 reduce Aβ40 in primary neurons. DIV-14 primary cortical neurons from wild-type mice were incubated for 24 hours with primary culture media containing lentivirus harboring APPsw. After infection, neurons were incubated for 48 hours with 1:1 fresh to conditioned media to allow for APP expression. Neurons were then treated for 24 hours with the indicated compound and concentration. A) Media was collected for Aβ40 ELISA. Raw Aβ40 values were normalized to APP to control for variations in lentiviral infection efficiency. B) Cell lysates were probed with 6E10 antibody to visualize the transduced full-length APP.
Lenti-APPsw infected primary cortical neurons were selected for the initial round of physiological experiments due to the relatively large batches of wild-type primary cortical neurons that were routinely harvested in the lab, the ease of lentiviral packaging. Primary cortical neurons were harvested from wild-type P0 pups using established protocols.
The Lenti-APPsw vector was co-transfected into HEK293 T cells with ViraPower packaging mix (Invitrogen) to generate the lentivirus. Lentiviral-mediated transduction of APPsw in primary neurons was performed by adding neuron primary culture media containing the lentiviral particles to wild-type DIV-14 primary neurons (FIG. 14). After 24 hours, neurons were incubated with media for 72 hours prior to collecting for Aβ40 measurement. Two batches of virus (LV-1 and LV-2) were tested, showing that there is batch-to-batch variation in the viral titer.
Using this experimental paradigm, LDN-0057228 was tested at 20 μM concentration to confirm the sAPPβ- and Aβ-lowering activity of the compound (FIG. 15). The protocol was modified slightly to allow for 24-hour compound treatment. […]

Data set [5] addresses T1, purified recombinant β-secretase (BACE1) (Homo sapiens, UniProt P56817).
T1 construct: purchased Invitrogen
Description: BACE1 FRET enzymatic assay (Invitrogen). The conditions noted are these: for dose-dependent inhibition of β-secretase: 3 concentrations (0.1, 1, and 10 μM); for IC50: 12 doses, read-out: enzymatic IC50 (FRET-based BACE1 assay). It is filed as biochemical. The text has this: FIG. 10. 4 compounds reduce BACE1 activity in an enzymatic assay. To further classify the small molecule hits, a FRET-based BACE1 enzymatic assay (Invitrogen) was used to identify potential direct BACE1 inhibitors.
In other non-limiting embodiments, the effective amount of at least one compound of Formulas I-VII, and/or a compound depicted in FIG. 19, may be correlated with the compound's ability to inhibit the enzymatic activity of a BACE1 enzyme. The compound's BACE1 inhibitory effect may be assayed, for example, through use of a BACE1 FRET Assay kit (Invitrogen Corp., Carlsbad, Calif., U.S.A.), wherein the fluorescence resonance energy transfer (FRET)-based assay measures the cleavage by purified recombinant β-secretase of a peptide substrate corresponding to the BACE1 cleavage site of Swedish mutant APP. In such an assay, a greater reduction in fluorescence in the reaction mixture following incubation with a compound of the invention compared to a control cell line not contacted with the compound is correlative with the compound's therapeutic efficacy.
Because the cell-based BACE1 assay has the potential to uncover direct as well as indirect inhibitors of β-secretase, a commercial BACE1 enzymatic assay was employed to classify the small molecule hits. The BACE1 FRET Assay kit was purchased from Invitrogen and used according to the manufacturer's protocol. This fluorescence resonance energy transfer (FRET)-based assay measures the cleavage by purified recombinant β-secretase of a peptide substrate corresponding to the BACE1 cleavage site of Swedish mutant APP. The 15 LDDN hits were first tested at 3 concentrations (0.1, 1, and 10 μM) to determine if there is a dose-dependent inhibition of β-secretase.

Data set [6] in a line: fluorescent readout interference: BACE1 substrate standard (cleaved peptide) without BACE1 enzyme. The conditions noted are these: highest of 12 concentrations. On the procedure: Because the enzymatic assay is performed with compound in the reaction mixture (in contrast to the cell-based BACE1 assay, where the compound is washed away after antibody-mediated specific capture of sAPPβ), it is conceivable that the compound itself may interfere with the fluorescent readout of the enzymatic BACE1 assay. To explore this possibility, BACE1 substrate standard (cleaved peptide, supplied in the assay kit) was incubated with 12 concentrations of LDN-0040630, LDN-0089308, LDN-0096529, and LDN-0091841 in the absence of BACE1 enzyme.

The mark [7] stands for this setting: 10 μM, triplicate rescreen of tagged-triazine hits.

T1 sequence (P56817 46-501): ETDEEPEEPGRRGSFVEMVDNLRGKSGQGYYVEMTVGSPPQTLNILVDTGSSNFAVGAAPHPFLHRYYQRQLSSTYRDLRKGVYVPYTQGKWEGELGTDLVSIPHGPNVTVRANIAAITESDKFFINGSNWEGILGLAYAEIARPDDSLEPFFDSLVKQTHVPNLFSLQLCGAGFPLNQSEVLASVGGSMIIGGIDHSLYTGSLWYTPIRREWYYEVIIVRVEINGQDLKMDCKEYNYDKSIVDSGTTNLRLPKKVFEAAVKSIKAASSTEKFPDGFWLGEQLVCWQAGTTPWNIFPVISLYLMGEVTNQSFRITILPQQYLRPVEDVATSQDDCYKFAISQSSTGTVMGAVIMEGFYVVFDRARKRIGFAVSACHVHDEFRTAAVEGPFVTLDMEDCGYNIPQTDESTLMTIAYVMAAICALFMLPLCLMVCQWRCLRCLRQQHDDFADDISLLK

For `NCCOCCOCCNC(=O)c1ccc(CNc2nc(NCC3CCCCC3)nc(N3CCCCC3)n2)cc1` [AM-D-E4], the “increase in sAPPβ” value in data set [1] (setting [7]) is listed as 36%. In addition, the “effect on cell viability” value in data set [2] is recorded as “did not affect cell viability”.
`CS(=O)(=O)c1nnnn1-c1ccccc1Cl` [LDN-0069630]: in data set [3], the “dose-dependent decrease in Aβ40” value was “caused a dose-dependent decrease in Aβ40”. Moreover, the “reduction in Aβ40” value in data set [4] (10 μM) stood at 15%; in data set [4] (15 μM), 40%.
Take `Oc1cc(-c2ccccc2)nn1-c1nc2ccccc2[nH]1` [LDN-0089308]: the IC50 – broadly, the concentration that inhibits the measured activity by half – in data set [1] turned out to be 3050 nM. Also, in data set [5], the “dose-dependent inhibition of β-secretase” value was “exhibited a dose-dependent effect” and the half-maximal inhibitory concentration (IC50) stood at 2140 nM. For the same molecule, the “maximal inhibition of the fluorescence signal in the absence of BACE1 enzyme” value in data set [6] was determined as 25%.
The corresponding values for `COc1ccccc1C(=O)Nc1nc2ccccc2n1CCOc1ccccc1` [LDN-0091841] are 2610 nM, “exhibited a dose-dependent effect”, 5150 nM and 25%.
In the case of `NCCOCCOCCNc1nc(N2CCCC2)nc(N2CCN(c3ccc([N+](=O)[O-])cc3)CC2)n1` [TG-CD-D7], the “inhibition of sAPPβ” value in data set [1] (setting [7]) stood at 43%. The “effect on cell viability” value in data set [2] is “did not affect cell viability”.
